Results: PMC12057341, “In vitro pharmacokinetic/pharmacodynamic modeling of the effect of mucin on polymyxin B activity against Acinetobacter baumannii” (Antimicrobial Agents and Chemotherapy, 2025)
Where a SMILES comes first, the peptide text is derived from it. Bridges are numbered along the chain shown (N, C = ends). [ ]: non-standard residue; d: D form. The star is where a group is joined. X1 = CC[C@H](C)CCCCC(=O)*; Dab = NCC[C@H](N)C(=O)O

Assays:
[1] = test system: mucin from the porcine stomach; assay: PMB binding to mucin by ultracentrifugation in CAMHB with 1% mucin; type: in vitro ADME; set-up: Unbound conc.: unit not given here; details: CAMHB + 1% mucin
Method: Mucin from the porcine stomach was obtained from Sigma-Aldrich (Merck KGaA, Saint-Quentin Fallavier, France) and solubilized in NaCl 0.9% to obtain a solution at 20% (pH adjusted to 7). The solution was autoclaved at 110°C for 15 minutes.
PMB solutions at concentrations ranging from 0.5 to 10,000 mg/L in CAMHB with 1% mucin were incubated for 1 h at 35°C, then ultracentrifuged at ~290 000 g for 5 h at room temperature (Beckman Optima LE-80K, rotor: Beckman Coulter 70.1 Ti), according to a method previously described ([35]). Unbound PMB concentrations in the supernates were determined by LC-MS/MS (method adapted from a previous publication ([36]) and detailed in Supplemental material) and used to determine the unbound fraction (fu) of PMB. Potential PMB sedimentation ([37]) during experimentation was determined from PMB solutions prepared in mucin-free CAMHB and subjected to the same ultracentrifugation conditions as previously described, and then used to correct for unbound PMB concentrations.
The same procedure was performed with a nonautoclaved mucin solution. Experiments were done in triplicate.
The relationship between fu and PMB total concentrations was modeled according to a sigmoidal Emax function (equation 1):
(1) fu=E0+ Imax × C^ε/IC50ε+ C^ε,
where E0 represents the minimum fu, Imax the maximum increase in fu, IC50 (mg/L) corresponds to PMB total concentration needed to reach 50% of Imax, C (mg/L) to the PMB total concentration, and ε to the Hill coefficient.
Parameter estimation was performed using nonlinear regression with iteratively reweighted least squares (R, version 4.1.3 – Package: robustbase, version 0.99–0). Two sets of parameters were estimated, one for the data generated with autoclaved mucin, another for the data generated without autoclave. The two sets of parameters were compared using ANOVA testing.

[2] = test system: Acinetobacter baumannii AB121-D0; assay: MIC at the end (T30h) of TK experiments after regrowth, AB121-D0; type: cell-based
Method: PMB MICs of both A. baumannii strains were determined in commercial CAMHB (BioMérieux, Marcy-l’Etoile, France) according to the European Committee on Antimicrobial Susceptibility Testing and Clinical and Laboratory Standards Institute (CLSI) recommendations ([33], [34]). PMB MICs of the two A. baumannii isolates were also determined at least in duplicate in CAMHB supplemented with 1% of mucin.
Samples were centrifuged (8 minutes at 8,000 rpm); then, the supernates were removed, and the pellets were stored at −80°C in CAMHB-glycerol 20%. A minimum bacterial density of ~10^5 CFU/mL in samples collected at the end of TK experiments was required for MIC susceptibility testing and sequencing.
Prior to MIC testing, the isolates were streaked onto a drug-free Mueller-Hinton agar plate and incubated for 24 h.

[3] = assumed for TK modeling, as previously shown; cited from earlier work
Description: Bacterial counts obtained from TK experiments without mucin were first modeled using NONMEM 7.4 (ICON plc, Dublin, Ireland) with the Laplacian algorithm and the M3 method for handling observations below the limit of quantification ([39]). PMB was assumed to be stable over the course of the experiment as previously shown ([40]). A previously described model with hetero-resistance ([41]), that is, two bacterial subpopulations, one susceptible to PMB (S) and one resistant (R), was used to describe the time course of bacterial counts for the two A. baumannii strains (Fig. 1). Different functions w ...

[4] = simulated with equation 1, non-autoclaved mucin parameters, total conc. 50
[5] = simulated with equation 1, non-autoclaved mucin parameters, total conc. 100
[6] = simulated with equation 1, non-autoclaved mucin parameters, total conc. 500
[7] = simulated with equation 1, non-autoclaved mucin parameters, total conc. 1000
[8] = simulated with equation 1, non-autoclaved mucin parameters, total conc. 5000
[9] = simulated with equation 1, non-autoclaved mucin parameters, total conc. 10000
[10] = simulated with equation 1, pooled data parameters, total conc. 0.5
[11] = simulated with equation 1, pooled data parameters, total conc. 1
[12] = simulated with equation 1, pooled data parameters, total conc. 2
[13] = simulated with equation 1, pooled data parameters, total conc. 4
[14] = simulated with equation 1, pooled data parameters, total conc. 8
[15] = simulated with equation 1, pooled data parameters, total conc. 10
[16] = simulated with equation 1, pooled data parameters, total conc. 50
[17] = simulated with equation 1, pooled data parameters, total conc. 100
[18] = simulated with equation 1, pooled data parameters, total conc. 500
[19] = simulated with equation 1, pooled data parameters, total conc. 1000
[20] = simulated with equation 1, pooled data parameters, total conc. 5000
[21] = simulated with equation 1, pooled data parameters, total conc. 10000

Compound: CC[C@H](C)CCCCC(=O)N[C@@H](CCN)C(=O)N[C@H](C(=O)N[C@@H](CCN)C(=O)N[C@H]1CCNC(=O)[C@H]([C@@H](C)O)NC(=O)[C@H](CCN)NC(=O)[C@H](CCN)NC(=O)[C@H](CC(C)C)NC(=O)[C@@H](Cc2ccccc2)NC(=O)[C@H](CCN)NC1=O)[C@@H](C)O [PMB, polymyxin B] (X1-[Dab]T[Dab][Dab][Dab][dF]L[Dab][Dab]T; lactam 4-C)
- Unbound conc. [1, 4]: 7.08
- fu (95% CI) [1, 4]: 14.2 (10.5 – 17.8) %
- Unbound conc. [1, 5]: 27.9
- fu (95% CI) [1, 5]: 27.9 (23.8 – 32.1) %
- Unbound conc. [1, 6]: 293
- fu (95% CI) [1, 6]: 58.6 (54.6 - 62.6) %
- Unbound conc. [1, 7]: 615
- fu (95% CI) [1, 7]: 61.5 (58.4 – 64.7) %
- Unbound conc. [1, 8]: 3130
- fu (95% CI) [1, 8]: 62.7 (58.6 – 66.7) %
- Unbound conc. [1, 9]: 6270
- fu (95% CI) [1, 9]: 62.7 (58.6 - 66.9) %
- Unbound conc. [1, 10]: 0.03
- fu (95% CI) [1, 10]: 6.1 (2.1 - 10.0) %
- Unbound conc. [1, 11]: 0.06
- fu (95% CI) [1, 11]: 6.1 (2.1 - 10.0) %
- Unbound conc. [1, 12]: 0.12
- fu (95% CI) [1, 12]: 6.1 (2.2 - 10.0) %
- Unbound conc. [1, 13]: 0.25
- fu (95% CI) [1, 13]: 6.1 (2.3 - 10.0) %
- Unbound conc. [1, 14]: 0.51
- fu (95% CI) [1, 14]: 6.4 (2.7 - 10.0) %
- Unbound conc. [1, 15]: 0.65
- fu (95% CI) [1, 15]: 6.5 (3.0 - 10.1) %
- Unbound conc. [1, 16]: 7.62
- fu (95% CI) [1, 16]: 15.2 (10.7 - 19.7) %
- Unbound conc. [1, 17]: 30.4
- fu (95% CI) [1, 17]: 30.4 (25.6 - 35.2) %
- Unbound conc. [1, 18]: 296
- fu (95% CI) [1, 18]: 59.2 (55.1 - 63.2) %
- Unbound conc. [1, 19]: 613
- fu (95% CI) [1, 19]: 61.3 (58.2 - 64.4) %
- Unbound conc. [1, 20]: 3100
- fu (95% CI) [1, 20]: 62.1 (58.4 - 65.8) %
- Unbound conc. [1, 21]: 6210
- fu (95% CI) [1, 21]: 62.1 (58.3 - 65.8) %
- MIC fold-change vs control of respective replicate ([2]; TK in CAMHB + 1% mucin, PMB 0.25 mg/L, replicate 3, pmrB Phe164Ile): >64
- MIC fold-change vs control of respective replicate ([2]; TK in CAMHB + 1% mucin, PMB 0.5 mg/L, replicate 2, pmrB Pro170Leu): >32
- MIC fold-change vs control of respective replicate ([2]; TK in CAMHB + 1% mucin, PMB 0.5 mg/L, replicate 3, pmrB Arg231Leu): >64
- MIC fold-change vs control of respective replicate ([2]; TK in CAMHB + 1% mucin, PMB 13 mg/L, replicate 4, pmrB Ala227Val): >64
- MIC fold-change vs control of respective replicate ([2]; TK in CAMHB, PMB 0.5 mg/L, replicate 2, pmrB Arg263His): >32
- MIC fold-change vs control of respective replicate ([2]; TK in CAMHB, PMB 0.5 mg/L, replicate 3, ISAba1 insertion in the promoter of pmrC_3): 32
- MIC fold-change vs control of respective replicate ([2]; TK in CAMHB, PMB 0.5 mg/L, replicate 4, pmrB Asn353Tyr): >64
- MIC fold-change vs control of respective replicate ([2]; TK in CAMHB, PMB 1 mg/L, replicate 4, pmrB 16.25dup): 32
- MIC fold-change vs control of respective replicate ([2]; TK in CAMHB, PMB 4 mg/L, replicate 2, pmrB Pro170Leu): >32
- Regrowth samples at T30h with MIC increased (≥32-fold) compared to control ([2]; TK in the absence of mucin, 6 out of 10 samples): 60%
- Regrowth samples at T30h with MIC increased (same order of magnitude, ≥32-fold) compared to control ([2]; TK in the presence of mucin, 5 out of 16 samples): 31%
- Cases of regrowth associated with an increase in the MIC at T30h ([2]; with and without mucin together): 42%
- Stability over the course of the experiment [3]: stable
